Reference: patent US11053260B2, “Tri-cycle compound and applications thereof” (FUJIAN COSUNTER PHARMACEUTICAL CO., LTD., priority 2017, dated 2021)

Each molecule was assayed on HBV (assay: HBV in vitro test in quantitative qPCR assay (HBV DNA content in HepG2.2.15 cells)). Details: Hepatitis B virus, HepG2.2.15, 192 h, HBV DNA by qPCR, day 8, read-out: 50% inhibitory concentration (EC50) value of HBV.
Format: cell-based
Procedure: HBV In Vitro Test in Quantitative qPCR Assay
The HBV DNA content in HepG2.2.15 cells was determined by real-time quantitative qPCR assay (real time-qPCR), and the inhibitory effect of the compound on HBV was evaluated by the EC50 value of the compound.
2.1 Cell line: HepG2.2.15 cells
3.1 HepG2.2.15 cells (4×10^4 cells/well) were seeded into a 96-well plate and incubated overnight at 37° C. under 5% CO2.
3.2 On the 2nd day, the compound was diluted into 8 concentrations with 3-time gradient. The compounds with different concentrations were added into the culture wells in duplicate wells. The final concentration of DMSO in the culture medium was 1%. 1 μM GLS4 was used as a 100% inhibition control, and 1% DMSO was used as a 0% inhibition control.
3.3 On the 5th day, the culture medium was replaced with a fresh medium containing the compound.
3.4 On the 8th day, the culture medium in the culture well was collected, and the DNA was extracted with a high-throughput DNA purification kit (Qiagen-51162), of which specific procedure was referred to the product specification.
3.6 15 μL of the reaction mixture was added into each well of a 96-well PCR plate, followed by addition of 10 μL of sample DNA or HBV DNA standards into each well.
3.7 PCR reaction conditions: heating at 95° C. for 10 minutes; then denaturation at 95° C. for 15 seconds, extension at 60° C. for 1 minute, a total of 40 cycles.
3.8.1 Calculation of the percentage of inhibition: % Inh.=[1−(DNA copy number in sample−DNA copy number in 1 μM GLS4)/(DNA copy number in DMSO control−DNA copy number in 1 μM GLS4)]×100
3.8.2 Calculation of EC50: The 50% inhibitory concentration (EC50) value of the compound on HBV was calculated by GraphPad Prism software.

**Q.** Which EC50 does the source give for `Cc1cc2n(c1)S(=O)(=O)c1ccc(C(=O)NCCC3CCCCO3)cc1NC2=O` (stereo not shown) [WX309] here?
**A.** ≤ 100 nM

**Q.** How did the EC50 turn out when `CC(C)(C)C(=O)N1CCC(CNC(=O)c2ccc3c(c2)NC(=O)c2cccn2S3(=O)=O)CC1` [WX279] was run?
**A.** 100 to 500 nM

**Q.** Which EC50 does the source give for `CC(C)c1ncc(CNC(=O)c2ccc3c(c2)NC(=O)c2c(Cl)ccn2S3(=O)=O)s1` [WX145] here?
**A.** 100 to 500 nM

**Q.** `O=C(NCCC1CCCCC1)c1ccc2c(c1)NC(=O)c1cccn1S2(=O)=O` [WX215] was tested. Which EC50 did it give?
**A.** 100 to 500 nM

**Q.** Which EC50 does the source give for `O=C(NCc1cnccc1C(F)(F)F)c1ccc2c(c1)NC(=O)c1cccn1S2(=O)=O` [WX265] here?
**A.** 1000 to 10000 nM

**Q.** Which EC50 does the source give for `O=C(NCCN1CCCC1=O)c1ccc2c(c1)NC(=O)c1cccn1S2(=O)=O` [WX208] here?
**A.** 500 to 1000 nM

**Q.** For `O=C(NCc1cncnc1)c1ccc2c(c1)NC(=O)c1cccn1S2(=O)=O` [WX231], which EC50 is on record?
**A.** 100 to 500 nM
